Data taken from ChEMBL document CHEMBL5678803, “Selective blockade of TRPA1 channel attenuates pathological pain without altering noxious cold sensation or body temperature regulation” (Pain, 2011).
Calls of active or inactive are those of the source. The calls are words filed in the database; no cut-off is given here.

Columns and labels:
[1] = Ratio of drug concentration in rat brain to plasma at 2 mg/kg, po; assay type: ADME, organism-based; conditions: read-out: BPR
[2] = biological target: T1, Transient receptor potential cation channel subfamily V member 2 (Rattus norvegicus) (UniProt Q9WUD2); assay: Antagonist activity at rat TRPV2 expressed in HEK293F cells assessed as inhibition of 2APB-induced TRPV2 channel activation by FLIPR-based Ca2+ assay relative to control; assay type: cell-based; conditions: concentration not given here
T1 sequence (whole entry): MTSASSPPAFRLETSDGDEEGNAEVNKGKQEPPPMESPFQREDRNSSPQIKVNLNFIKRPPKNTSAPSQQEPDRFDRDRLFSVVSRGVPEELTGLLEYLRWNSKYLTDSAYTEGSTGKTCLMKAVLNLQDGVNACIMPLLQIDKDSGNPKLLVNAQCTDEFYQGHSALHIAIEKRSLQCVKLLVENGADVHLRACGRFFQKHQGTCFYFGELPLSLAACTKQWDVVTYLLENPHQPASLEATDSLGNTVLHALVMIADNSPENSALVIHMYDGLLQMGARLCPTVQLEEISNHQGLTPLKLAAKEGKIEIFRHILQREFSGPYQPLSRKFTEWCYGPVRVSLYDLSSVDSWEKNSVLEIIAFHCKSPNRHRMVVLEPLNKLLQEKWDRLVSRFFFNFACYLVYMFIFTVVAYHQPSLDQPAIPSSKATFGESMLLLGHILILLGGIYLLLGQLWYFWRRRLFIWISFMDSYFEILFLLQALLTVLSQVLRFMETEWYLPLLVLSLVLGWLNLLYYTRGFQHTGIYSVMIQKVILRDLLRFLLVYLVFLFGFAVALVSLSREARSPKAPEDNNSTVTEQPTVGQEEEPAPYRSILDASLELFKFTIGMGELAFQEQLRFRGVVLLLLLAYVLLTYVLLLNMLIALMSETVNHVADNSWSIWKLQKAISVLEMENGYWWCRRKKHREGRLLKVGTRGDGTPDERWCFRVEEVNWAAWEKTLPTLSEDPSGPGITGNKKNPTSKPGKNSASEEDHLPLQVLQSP

Rattus norvegicus = assay: Analgesic activity in MIA-induced osteoarthritic pain Sprague-Dawley rat model assessed as reversal of MIA-induced hind limb grip force deficit preadministered with MIA for 3 weeks followed by oral administration of compound for 1 hrs; assay type: functional; conditions: dose 6.2-62.1 mg/kg
[3] = biological target: T2, Transient receptor potential cation channel subfamily V member 1 (Homo sapiens, UniProt Q8NER1); assay: Antagonist activity at human TRPV1 expressed in HEK293F cells assessed as inhibition of capsaicin-induced increase in intracellular Ca2+ level by FLIPR-based Ca2+ assay; assay type: cell-based
T2 sequence (Q8NER1 whole entry): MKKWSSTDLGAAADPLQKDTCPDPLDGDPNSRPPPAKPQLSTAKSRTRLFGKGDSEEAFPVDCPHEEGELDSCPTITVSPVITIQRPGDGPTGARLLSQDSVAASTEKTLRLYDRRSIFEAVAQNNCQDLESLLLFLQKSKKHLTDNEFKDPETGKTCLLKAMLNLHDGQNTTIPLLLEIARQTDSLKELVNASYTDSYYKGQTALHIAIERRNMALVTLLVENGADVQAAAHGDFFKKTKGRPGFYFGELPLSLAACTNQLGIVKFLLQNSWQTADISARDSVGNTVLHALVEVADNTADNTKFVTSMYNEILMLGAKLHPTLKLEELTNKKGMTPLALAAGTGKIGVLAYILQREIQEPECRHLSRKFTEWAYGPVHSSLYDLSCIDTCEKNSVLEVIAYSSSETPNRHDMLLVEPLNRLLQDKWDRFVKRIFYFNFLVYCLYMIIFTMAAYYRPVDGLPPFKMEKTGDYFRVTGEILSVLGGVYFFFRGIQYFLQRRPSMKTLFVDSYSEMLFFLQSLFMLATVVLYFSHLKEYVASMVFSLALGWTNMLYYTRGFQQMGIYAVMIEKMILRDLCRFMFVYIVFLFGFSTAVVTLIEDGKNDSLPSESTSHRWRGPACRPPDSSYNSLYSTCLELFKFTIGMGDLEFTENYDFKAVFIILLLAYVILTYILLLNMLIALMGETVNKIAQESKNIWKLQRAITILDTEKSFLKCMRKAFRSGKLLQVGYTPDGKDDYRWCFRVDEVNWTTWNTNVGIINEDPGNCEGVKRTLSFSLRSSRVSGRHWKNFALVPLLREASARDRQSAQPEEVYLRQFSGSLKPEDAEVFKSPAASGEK

[4] = Stability of compound in aqueous tetrahydrofuran buffer at pH 7.5 assessed as compound remaining incubated for 16 hrs in presence of glutathione by nuclear magnetic resonance spectroscopy based LC-MS analysis; assay type: physicochemical; conditions: aqueous tetrahydrofuran buffer with glutathione, read-out: Stability
[5] = Unbound drug concentration in rat at 62.1 mg/kg, po measured after 60 mins; assay type: ADME, organism-based; conditions: in vivo, 1 h
[6] = biological target: T1, Transient receptor potential cation channel subfamily V member 2 (Rattus norvegicus); assay: Activation of rat TRPV2 expressed in HEK293F cells upto 100 micromol/L; assay type: cell-based; conditions: dose <= 100.0 µmol/L
[7] = biological target: Transient receptor potential cation channel subfamily A member 1 (Rattus norvegicus, UniProt Q6RI86); assay: Antagonist activity at GFP-tagged rat TRPA1 transfected in HEK293F cells assessed as reduction in AITC-induced inward current at -60 mV holding potential by electrophysiological recordings; assay type: cell-based
Chain of Transient receptor potential cation channel subfamily A member 1 (Rattus norvegicus, UniProt Q6RI86) (Q6RI86 whole entry): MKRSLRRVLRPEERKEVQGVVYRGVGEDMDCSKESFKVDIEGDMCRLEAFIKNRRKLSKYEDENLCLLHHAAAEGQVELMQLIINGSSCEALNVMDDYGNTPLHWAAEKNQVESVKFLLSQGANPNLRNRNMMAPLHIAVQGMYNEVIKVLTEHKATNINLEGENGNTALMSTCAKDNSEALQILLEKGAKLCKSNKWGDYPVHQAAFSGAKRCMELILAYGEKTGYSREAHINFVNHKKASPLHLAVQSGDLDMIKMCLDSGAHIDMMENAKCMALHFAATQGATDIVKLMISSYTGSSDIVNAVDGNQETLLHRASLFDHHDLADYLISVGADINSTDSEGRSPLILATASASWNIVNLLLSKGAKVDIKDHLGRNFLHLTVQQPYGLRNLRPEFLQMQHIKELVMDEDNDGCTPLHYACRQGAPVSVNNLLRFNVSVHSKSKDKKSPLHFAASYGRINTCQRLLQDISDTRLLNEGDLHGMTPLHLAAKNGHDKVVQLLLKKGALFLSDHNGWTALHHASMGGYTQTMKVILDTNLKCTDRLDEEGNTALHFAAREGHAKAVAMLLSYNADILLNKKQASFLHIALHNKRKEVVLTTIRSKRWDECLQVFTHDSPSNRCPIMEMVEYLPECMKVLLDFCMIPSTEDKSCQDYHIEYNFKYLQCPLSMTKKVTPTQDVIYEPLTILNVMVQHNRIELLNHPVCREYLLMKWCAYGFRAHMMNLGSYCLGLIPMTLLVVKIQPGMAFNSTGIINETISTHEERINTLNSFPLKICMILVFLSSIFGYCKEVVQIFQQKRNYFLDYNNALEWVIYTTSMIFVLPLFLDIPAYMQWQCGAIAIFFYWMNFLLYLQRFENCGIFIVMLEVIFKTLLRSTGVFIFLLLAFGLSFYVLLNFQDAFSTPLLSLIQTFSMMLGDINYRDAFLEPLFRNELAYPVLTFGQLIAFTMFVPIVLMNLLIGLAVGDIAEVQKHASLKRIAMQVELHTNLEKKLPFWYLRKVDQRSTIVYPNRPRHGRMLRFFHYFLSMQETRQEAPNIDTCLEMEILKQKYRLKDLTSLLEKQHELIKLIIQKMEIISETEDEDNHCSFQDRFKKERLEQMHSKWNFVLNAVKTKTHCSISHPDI

[8] = Toxicity in Sprague-Dawley rat assessed as effect on body temperature at 20.7 to 62.1 mg/kg, po measured after 480 mins by radiotelemetric analysis; assay type: organism-based; conditions: in vivo, 8 h, dose 20.7-62.1 mg/kg
[9] = biological target: T3, Transient receptor potential cation channel subfamily V member 3 (Homo sapiens) (UniProt Q8NET8); assay: Antagonist activity at endogenous TRPV3 in human epithelial cells assessed as inhibition of 2APB-induced TRPV3 channel activation by FLIPR-based Ca2+ assay relative to control; conditions: Epithelial cell, concentration not given here
T3 sequence (whole entry): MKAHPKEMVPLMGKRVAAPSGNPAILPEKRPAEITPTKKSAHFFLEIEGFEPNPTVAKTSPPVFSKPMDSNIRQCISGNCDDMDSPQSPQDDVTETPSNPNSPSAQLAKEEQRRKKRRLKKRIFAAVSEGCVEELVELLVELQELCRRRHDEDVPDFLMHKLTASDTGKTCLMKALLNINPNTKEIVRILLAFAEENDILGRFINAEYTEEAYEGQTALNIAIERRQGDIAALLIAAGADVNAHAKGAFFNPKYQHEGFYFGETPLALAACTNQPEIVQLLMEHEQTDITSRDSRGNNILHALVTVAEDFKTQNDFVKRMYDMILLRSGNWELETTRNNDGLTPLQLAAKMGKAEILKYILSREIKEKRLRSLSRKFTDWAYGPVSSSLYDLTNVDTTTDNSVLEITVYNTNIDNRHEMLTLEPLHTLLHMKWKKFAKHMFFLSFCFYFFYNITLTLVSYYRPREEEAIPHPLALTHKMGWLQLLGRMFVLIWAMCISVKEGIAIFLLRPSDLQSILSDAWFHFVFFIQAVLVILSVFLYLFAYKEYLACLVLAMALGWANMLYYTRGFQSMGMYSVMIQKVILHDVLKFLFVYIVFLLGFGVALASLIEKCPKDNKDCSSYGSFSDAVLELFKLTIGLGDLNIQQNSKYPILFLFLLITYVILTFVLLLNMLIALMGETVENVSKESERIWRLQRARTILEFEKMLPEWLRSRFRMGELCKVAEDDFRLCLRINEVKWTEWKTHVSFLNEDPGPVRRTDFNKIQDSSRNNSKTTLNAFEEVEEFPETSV

[10] = biological target: T2, Transient receptor potential cation channel subfamily V member 1; assay: Activation of human TRPV1 expressed in HEK293F cells upto 100 micromol/L; assay type: cell-based; conditions: dose <= 100.0 µmol/L
[11] = biological target: Transient receptor potential cation channel subfamily M member 8 (Homo sapiens, UniProt Q7Z2W7); assay: Activation of human TRPM8 expressed in HEK293F cells upto 100 micromol/L; assay type: cell-based; conditions: dose <= 100.0 µmol/L
Chain of Transient receptor potential cation channel subfamily M member 8 (Q7Z2W7 whole entry, looked up): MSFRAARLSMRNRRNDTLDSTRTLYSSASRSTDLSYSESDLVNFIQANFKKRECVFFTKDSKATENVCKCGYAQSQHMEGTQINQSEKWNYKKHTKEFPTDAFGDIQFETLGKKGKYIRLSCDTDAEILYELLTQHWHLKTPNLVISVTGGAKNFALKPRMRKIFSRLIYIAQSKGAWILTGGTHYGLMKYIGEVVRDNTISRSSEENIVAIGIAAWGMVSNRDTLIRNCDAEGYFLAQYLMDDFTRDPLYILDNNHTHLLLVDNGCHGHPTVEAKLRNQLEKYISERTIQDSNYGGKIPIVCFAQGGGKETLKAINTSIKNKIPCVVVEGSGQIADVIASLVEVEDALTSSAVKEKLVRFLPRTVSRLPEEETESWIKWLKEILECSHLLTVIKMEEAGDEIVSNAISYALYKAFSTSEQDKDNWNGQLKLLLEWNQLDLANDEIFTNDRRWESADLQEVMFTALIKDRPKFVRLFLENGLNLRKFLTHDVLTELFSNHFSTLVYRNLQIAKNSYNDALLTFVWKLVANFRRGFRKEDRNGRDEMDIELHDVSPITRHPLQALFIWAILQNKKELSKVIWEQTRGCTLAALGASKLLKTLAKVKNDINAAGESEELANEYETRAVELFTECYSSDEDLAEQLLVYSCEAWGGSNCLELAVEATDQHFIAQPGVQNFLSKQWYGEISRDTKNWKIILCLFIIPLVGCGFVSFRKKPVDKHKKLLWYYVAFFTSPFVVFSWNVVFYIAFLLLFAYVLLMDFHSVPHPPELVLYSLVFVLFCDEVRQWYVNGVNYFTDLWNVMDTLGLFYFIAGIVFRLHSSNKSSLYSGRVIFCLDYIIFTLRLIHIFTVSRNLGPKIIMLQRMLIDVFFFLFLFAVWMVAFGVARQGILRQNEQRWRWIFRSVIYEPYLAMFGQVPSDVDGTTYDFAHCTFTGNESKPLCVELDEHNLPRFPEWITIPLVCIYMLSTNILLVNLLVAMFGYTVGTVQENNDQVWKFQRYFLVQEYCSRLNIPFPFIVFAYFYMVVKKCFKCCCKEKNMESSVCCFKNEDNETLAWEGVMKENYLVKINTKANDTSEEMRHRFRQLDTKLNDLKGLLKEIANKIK

[12] = Chemical reactivity of compound to La antigen incubated overnight by LC-MS analysis; assay type: physicochemical
[13] = Toxicity in CD1 mouse assessed as effect on first jump latency at 0 degreeC at 62.1 mg/kg, po measured after 4 mins by noxious cold plate assay; assay type: organism-based; conditions: in vivo
[14] = biological target: Transient receptor potential cation channel subfamily A member 1 (Homo sapiens, UniProt O75762); assay: Antagonist activity at recombinant human TRPA1 expressed in HEK293F cells assessed as reduction in AITC-induced increase in intracellular Ca2+ level by FLIPR-based Ca2+ assay; assay type: cell-based; conditions: filed as antagonist
Chain of Transient receptor potential cation channel subfamily A member 1 (Homo sapiens, UniProt O75762) (O75762 whole entry): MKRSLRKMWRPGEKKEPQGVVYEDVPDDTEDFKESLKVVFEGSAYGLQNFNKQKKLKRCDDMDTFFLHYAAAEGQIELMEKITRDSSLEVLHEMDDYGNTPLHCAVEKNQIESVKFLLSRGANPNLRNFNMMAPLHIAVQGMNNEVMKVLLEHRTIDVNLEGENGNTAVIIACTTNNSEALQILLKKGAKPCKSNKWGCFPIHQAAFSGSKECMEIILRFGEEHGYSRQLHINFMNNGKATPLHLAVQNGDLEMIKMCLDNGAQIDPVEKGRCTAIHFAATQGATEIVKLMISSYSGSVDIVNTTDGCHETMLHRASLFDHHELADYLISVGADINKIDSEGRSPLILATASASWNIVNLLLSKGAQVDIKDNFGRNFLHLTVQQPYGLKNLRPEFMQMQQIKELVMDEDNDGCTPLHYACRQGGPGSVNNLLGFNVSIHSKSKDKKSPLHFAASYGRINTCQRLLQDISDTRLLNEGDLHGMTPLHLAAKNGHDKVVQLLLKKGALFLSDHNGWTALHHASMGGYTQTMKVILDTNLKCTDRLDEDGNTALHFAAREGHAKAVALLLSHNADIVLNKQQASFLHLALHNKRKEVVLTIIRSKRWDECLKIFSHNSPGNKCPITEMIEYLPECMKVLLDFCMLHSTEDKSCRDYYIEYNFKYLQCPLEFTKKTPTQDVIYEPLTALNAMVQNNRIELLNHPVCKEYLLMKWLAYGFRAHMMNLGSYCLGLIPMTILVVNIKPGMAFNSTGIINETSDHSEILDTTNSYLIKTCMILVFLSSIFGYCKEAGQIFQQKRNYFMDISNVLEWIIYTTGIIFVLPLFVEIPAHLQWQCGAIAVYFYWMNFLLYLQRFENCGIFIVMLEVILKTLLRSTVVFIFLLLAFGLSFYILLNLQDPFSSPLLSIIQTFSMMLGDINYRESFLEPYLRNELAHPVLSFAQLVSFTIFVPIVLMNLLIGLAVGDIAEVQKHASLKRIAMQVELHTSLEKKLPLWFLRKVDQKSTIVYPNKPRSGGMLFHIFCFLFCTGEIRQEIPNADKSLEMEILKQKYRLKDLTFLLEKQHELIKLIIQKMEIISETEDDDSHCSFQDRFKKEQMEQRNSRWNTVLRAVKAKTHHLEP

[15] = Oral bioavailability in rat at 2 mg/kg; assay type: ADME, organism-based; conditions: in vivo
[16] = Chemical reactivity of compound to 13C-labelled La antigen by ALARM NMR spectroscopic analysis; assay type: physicochemical
[17] = Drug concentration in rat at 62.1 mg/kg, po measured after 60 mins; assay type: ADME, organism-based; conditions: in vivo, read-out: Drug uptake

SMILES: CCC(=N\O)/C(C)=C/c1ccc(F)cc1 [A-079]
- Kp [1]: 0.75
- inhibition [2]: < 20%
- Activity (Rattus norvegicus): Dose-Dependent Effect
- ED50 (Rattus norvegicus): 23.2 mg/kg
- IC50 [3]: > 100000 nM
- remaining at 16 h [4]: > 95%
- Drug uptake(free) [5]: 0.47 µmol/L
- Activity [6]: inactive
- IC50 [7]: 101 nM
- Activity [8]: Non-Toxic
- inhibition [9]: < 20%
- Activity [10]: inactive
- Activity [11]: inactive
- Stability [12]: Stable
- Activity [13]: Non-Toxic
- Activity [14]: Dose-Dependent Effect
- bioavailability [15]: 37%
- Stability [16]: Stable
- concentration at 1 h [17]: 11.8 µM
